ChEMBL document CHEMBL1201862, “PubChem BioAssay data set” (2004)
Active and inactive are the calls of the source. Cut-off read from the data, not from the text of the source, for most assays here: actives have a measured IC50 and inactives only a lower limit.

Assays:
Caspase-3 [1] = target: T1, Caspase-3 (Homo sapiens, UniProt P42574); experiment: SAR Analysis of small molecule inhibitors of Sentrin-specific proteases (SENPs) using a Caspase-3 Selectivity assay. [Related pubchem assays (depositor defined):AID2540, AID2599, AID434973, AID489001]; assay type: functional
T1 sequence (P42574 whole entry): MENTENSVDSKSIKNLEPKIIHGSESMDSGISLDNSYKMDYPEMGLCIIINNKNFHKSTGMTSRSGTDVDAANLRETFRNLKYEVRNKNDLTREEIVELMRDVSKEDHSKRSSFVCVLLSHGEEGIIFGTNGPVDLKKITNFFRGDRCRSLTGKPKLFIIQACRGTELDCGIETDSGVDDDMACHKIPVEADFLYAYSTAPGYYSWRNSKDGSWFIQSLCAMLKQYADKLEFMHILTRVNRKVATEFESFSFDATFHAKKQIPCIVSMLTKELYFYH

[2] = target: T2, Sentrin-specific protease 8 (Homo sapiens, UniProt Q96LD8); experiment: SENP8 protease inhibitors, SAR follow-up, biochemical, luminescence, set 2 (AID 588601); assay type: functional
T2 sequence (Q96LD8 whole entry): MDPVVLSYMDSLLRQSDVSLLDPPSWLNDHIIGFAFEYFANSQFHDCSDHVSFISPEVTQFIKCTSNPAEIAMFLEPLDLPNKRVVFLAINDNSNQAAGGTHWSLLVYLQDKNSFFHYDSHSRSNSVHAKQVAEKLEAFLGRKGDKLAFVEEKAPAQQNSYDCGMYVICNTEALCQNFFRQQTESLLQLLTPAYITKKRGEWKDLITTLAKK

[3] = target: T3, Sentrin-specific protease 7 (Homo sapiens, UniProt Q9BQF6); experiment: SENP7 protease inhibitors, SAR follow-up, biochemical, luminescence, set 2 (AID 588600); assay type: functional
T3 sequence (Q9BQF6 whole entry): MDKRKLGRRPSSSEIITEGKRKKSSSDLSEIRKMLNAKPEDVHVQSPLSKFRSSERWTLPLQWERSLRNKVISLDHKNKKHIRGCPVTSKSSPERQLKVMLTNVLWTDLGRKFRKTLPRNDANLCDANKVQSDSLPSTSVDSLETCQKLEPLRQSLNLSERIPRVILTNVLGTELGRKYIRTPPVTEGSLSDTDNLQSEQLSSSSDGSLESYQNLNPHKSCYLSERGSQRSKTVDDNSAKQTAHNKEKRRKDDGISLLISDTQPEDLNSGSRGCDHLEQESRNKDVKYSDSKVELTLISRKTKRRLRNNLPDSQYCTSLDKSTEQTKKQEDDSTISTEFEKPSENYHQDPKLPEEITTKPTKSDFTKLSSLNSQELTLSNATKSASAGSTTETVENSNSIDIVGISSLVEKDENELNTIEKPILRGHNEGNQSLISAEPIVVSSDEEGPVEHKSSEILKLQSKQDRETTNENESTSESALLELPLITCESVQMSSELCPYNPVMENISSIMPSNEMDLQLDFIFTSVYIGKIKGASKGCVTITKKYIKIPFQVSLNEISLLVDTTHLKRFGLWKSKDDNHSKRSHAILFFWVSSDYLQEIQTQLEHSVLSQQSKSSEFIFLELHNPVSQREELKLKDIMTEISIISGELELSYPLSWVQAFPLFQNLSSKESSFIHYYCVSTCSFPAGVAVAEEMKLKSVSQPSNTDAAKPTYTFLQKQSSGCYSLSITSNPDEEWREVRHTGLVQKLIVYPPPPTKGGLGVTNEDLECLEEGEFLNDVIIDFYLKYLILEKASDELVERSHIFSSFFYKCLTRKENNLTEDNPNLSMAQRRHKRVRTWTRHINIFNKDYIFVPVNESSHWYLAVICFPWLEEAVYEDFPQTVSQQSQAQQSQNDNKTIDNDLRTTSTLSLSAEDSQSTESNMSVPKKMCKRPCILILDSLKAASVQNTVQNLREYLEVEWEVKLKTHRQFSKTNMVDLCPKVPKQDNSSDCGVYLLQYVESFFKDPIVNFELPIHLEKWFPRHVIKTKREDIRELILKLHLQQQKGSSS

[4] = target: T4, Sentrin-specific protease 6 (Homo sapiens, UniProt Q9GZR1); experiment: SENP6 protease inhibitors, SAR follow-up, biochemical, luminescence, set 2 (AID 588598); assay type: functional
T4 sequence (Q9GZR1 whole entry): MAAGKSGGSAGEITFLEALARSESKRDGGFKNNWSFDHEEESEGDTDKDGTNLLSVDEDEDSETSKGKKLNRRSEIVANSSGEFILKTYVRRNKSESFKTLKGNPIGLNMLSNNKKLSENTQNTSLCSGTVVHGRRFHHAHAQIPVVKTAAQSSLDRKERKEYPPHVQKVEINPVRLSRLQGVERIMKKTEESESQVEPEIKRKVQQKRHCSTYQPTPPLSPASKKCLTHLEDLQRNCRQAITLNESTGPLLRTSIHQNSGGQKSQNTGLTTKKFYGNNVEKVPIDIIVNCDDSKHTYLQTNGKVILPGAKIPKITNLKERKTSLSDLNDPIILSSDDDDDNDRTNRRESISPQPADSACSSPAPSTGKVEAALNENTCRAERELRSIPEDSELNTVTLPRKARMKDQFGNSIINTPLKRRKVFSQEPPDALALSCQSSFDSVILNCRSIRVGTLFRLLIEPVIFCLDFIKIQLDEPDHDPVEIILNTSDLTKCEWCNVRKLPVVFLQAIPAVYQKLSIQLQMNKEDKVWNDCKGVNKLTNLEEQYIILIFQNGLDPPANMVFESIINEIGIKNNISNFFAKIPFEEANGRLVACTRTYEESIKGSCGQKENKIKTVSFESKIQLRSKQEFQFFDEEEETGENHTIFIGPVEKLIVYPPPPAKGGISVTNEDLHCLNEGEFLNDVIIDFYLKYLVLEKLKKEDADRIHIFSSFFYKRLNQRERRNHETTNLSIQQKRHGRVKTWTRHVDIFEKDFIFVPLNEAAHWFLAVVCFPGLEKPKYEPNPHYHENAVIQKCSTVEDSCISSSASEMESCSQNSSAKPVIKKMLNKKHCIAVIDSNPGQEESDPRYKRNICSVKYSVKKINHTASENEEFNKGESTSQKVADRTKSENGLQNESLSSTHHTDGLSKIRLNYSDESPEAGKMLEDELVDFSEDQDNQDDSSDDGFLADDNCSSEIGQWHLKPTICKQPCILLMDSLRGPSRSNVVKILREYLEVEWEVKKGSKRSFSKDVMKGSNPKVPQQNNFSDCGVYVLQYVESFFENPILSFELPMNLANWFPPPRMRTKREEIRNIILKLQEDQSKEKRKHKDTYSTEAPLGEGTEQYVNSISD

[5] = target: T4, Sentrin-specific protease 6; experiment: SAR Analysis of small molecule inhibitors of Sentrin-specific protease 6 (SENP6) using a Luminescent assay. [Related pubchem assays (depositor defined):AID2582, AID2599]; assay type: functional
Caspase-3 [6] = target: T1, Caspase-3; experiment: caspase-3 inhibitors as off-family protease, SAR follow-up, selectivity assay for SENP protease inhibitor project, biochemical, luminescence, set 2 (AID 588599); assay type: functional
[7] = target: T3, Sentrin-specific protease 7; experiment: SENP7 protease inhibitors, SAR follow-up, biochemical, luminescence (AID 504497); assay type: functional
[8] = target: T2, Sentrin-specific protease 8; experiment: SENP8 protease inhibitors, SAR follow-up, biochemical, luminescence (AID 504501); assay type: functional
[9] = target: T5, Nuclear receptor subfamily 0 group B member 1 (Homo sapiens, UniProt P51843); assay type: functional, cell-based;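 note: HEK293T cells transfected with SF-1 and DAX-1 plus StAR promoter luciferase reporter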
T5 sequence (P51843 whole entry): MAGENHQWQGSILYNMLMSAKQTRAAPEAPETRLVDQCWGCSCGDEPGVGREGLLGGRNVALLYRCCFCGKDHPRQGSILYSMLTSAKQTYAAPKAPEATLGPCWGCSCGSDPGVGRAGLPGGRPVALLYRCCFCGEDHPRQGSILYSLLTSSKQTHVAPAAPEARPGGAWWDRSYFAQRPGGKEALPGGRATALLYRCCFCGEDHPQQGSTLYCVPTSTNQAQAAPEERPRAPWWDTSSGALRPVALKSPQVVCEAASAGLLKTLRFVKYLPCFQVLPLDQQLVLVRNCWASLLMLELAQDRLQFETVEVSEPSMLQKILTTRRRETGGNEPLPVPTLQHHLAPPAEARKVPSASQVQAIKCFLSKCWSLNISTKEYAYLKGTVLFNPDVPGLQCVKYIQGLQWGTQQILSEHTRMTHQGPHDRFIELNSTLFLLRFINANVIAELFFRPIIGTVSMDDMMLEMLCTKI

[10] = LGR2 antagonists, dose response, cell-based, HEK293, CRE-luciferase reporter, cherry pick, set 2 (AID 743343); assay type: functional;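 note: transfected cells were stimulated with diluted bursicon conditioned medium after compound addition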
HEK293 = experiment: inhibitors of LMP1-driven NF-kB reporter, dose response, cell-based, HEK293, luciferase, cherry-pick (AID 588343); assay type: functional; details: Homo sapiens
[11] = MC4R antagonists, dose response, counter-screen for LGR2 antagonist project, cell-based, plate reader, cherry pick (AID 743444); assay type: functional;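 note: transfected HEK 293 cells stimulated with alpha-MSH peptide; potency of inhibitors of the alpha-MSH evoked signal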
cells = assay type: functional, cell-based
[12] = A549 cell cytotoxicity, dose response, cytotoxicity control, plate reader, cherry-pick, antagonist series (AID 743412); assay type: functional, cell-based
[13] = target: Latent membrane protein 1 (Human herpesvirus 4 (strain B95-8), UniProt P03230); experiment: TES1-eGFP NF-kB reporter inhibition versus Tet-On dsRED, dose response, selectivity assay for LMP1 NF-kB inhibitor project, imaging, HEK293T, dual-color eGFP/dsRED, cherry-picks (AID 588398); assay type: functional, cell-based
Latent membrane protein 1, sequence (P03230 whole entry): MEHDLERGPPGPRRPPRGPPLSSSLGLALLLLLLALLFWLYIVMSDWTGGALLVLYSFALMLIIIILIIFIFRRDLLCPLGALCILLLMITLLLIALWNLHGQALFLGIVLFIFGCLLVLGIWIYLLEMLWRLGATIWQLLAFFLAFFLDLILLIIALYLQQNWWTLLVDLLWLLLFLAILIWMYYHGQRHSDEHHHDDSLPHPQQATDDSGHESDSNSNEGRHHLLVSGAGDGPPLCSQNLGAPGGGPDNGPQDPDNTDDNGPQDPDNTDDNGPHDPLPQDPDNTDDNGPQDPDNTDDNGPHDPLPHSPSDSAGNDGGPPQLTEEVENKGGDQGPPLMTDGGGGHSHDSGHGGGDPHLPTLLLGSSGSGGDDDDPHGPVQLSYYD

| IC50 (Caspase-3 [1]) | IC50 [3] | IC50 [4] | IC50 [5] | IC50 (Caspase-3 [6]) | IC50 [7] | SMILES | IC50 [2] | IC50 [8] | IC50 [9] | AC50 [10] | AC50 (HEK293) | AC50 [11] | IC50 (cells) | AC50 [12] | AC50 [13] |
| --- | --- | --- | --- | --- | --- | --- | --- | --- | --- | --- | --- | --- | --- | --- | --- |
| 72 µM (active) | 2.67 µM (active) | 2.07 µM (active) | > 99 µM (inactive) | 6.86 µM (active) | 2.5 µM (active) | O=C(Nc1nc2ccccc2s1)c1cccs1 | 2.2 µM (active) | > 99 µM (inactive) |  |  |  |  |  |  |  |
|  |  |  |  |  |  | c1ccc(-c2cn3c4c(sc3n2)CCCC4)cc1 |  |  | > 67.6 µM (inactive) | 2.72 µM (active) | 1.92 µM (active) | 4.25 µM (active) | > 67.6 µM (inactive) | 41.1 µM (active) | 31.6 µM (active) |
